≈ marks a conversion by molar mass, not a printed value. Counter-ions that a name gives are not always drawn. Like-named read-outs stand apart in the source and are kept apart here.
Key:
[1] = system: Schistosoma mansoni adult worms (49-day-old); assay: Effect on adult schistosomes (49-day-old) in infected mice; format: in vivo; details: for % reduction of adult worms growth at day 49 after per os application of 400 mg/kg, TWR (%) / Adult worms day 49, per os 400 mg/kg, DEAD WORM (%): single 400 mg/kg per os
Experimental: Mice were infected with 100 Schistosoma mansoni cercariae on day 49 post-treatment. Each group was treated per os with OZ compounds at single doses of 200, 400, and 600 mg/kg. Untreated mice served as the control. All groups were killed 4 weeks after treatment and the liver and intestine were removed and separated. The liver and intestine were compressed and alive male and female worms could be seen and counted.

[2] = system: ANKA strain of Plasmodium berghei; assay: Single dose ED50/ED90/ED99 determination in infected mice; format: in vivo
Experimental: In the single dose ED50/ED98/ED99 determinations, Moro SPF or NMRI mice (group of three) infected with the ANKA strain of Plasmodium berghei were treated on day one post-infection. […] The SSV consists of 0.5% w/v CMC, 0.5% v/v benzyl alcohol, 0.4% v/v Tween 80, and 0.9% w/v sodium chloride in water. Antimalarial activity was measured by percent reduction in parasitemia on day three post-infection. The ED50/ED90 values were calculated by nonlinear fitting.
The ED50, ED90, and ED99 values were calculated by non-linear fitting with statistical program and were expressed in mg/kg.

[3] = system: Schistosoma mansoni 21-day-old schistosomules; assay: Effect on 21-day-old schistosomules in infected mice; format: in vivo; details: for % reduction of schistosomule growth at day 21 after per os application of 200 mg/kg, FWR (%): female worm reduction rate
Experimental: Mice were infected with 100 Schistosoma mansoni cercariae on day 21 post-treatment. Each group was treated per os with trioxolanes at a single dose of 200 mg/kg. […] All groups were killed 4 weeks after treatment and the liver and intestine were removed and separated. The liver and intestine were compressed and alive male and female worms could be seen and counted. The effect of the compounds was evaluated by mean total and female worm burden.

[4] = system: ANKA strain of P. berghei; assay: Single dose STI in vivo screen in infected mice; parameters: species or system Plasmodium berghei; details: for Survival (days) 10 mg/kg po: single 10 mg/kg po in 3% ethanol and 7% Tween 80; for Survival (days) 10 mg/kg po / Survival (days) 10 mg/kg SSV po / Survival (days) 10 mg/kg sc: untreated 6-7 days; for Activity (%) 10 mg/kg po: single 10 mg/kg po in 3% ethanol and 7% Tween 80 on day 1 post-infection; for Activity (%) 10 mg/kg po / Activity (%) 10 mg/kg SSV po / Activity (%) 10 mg/kg sc: percent reduction in parasitemia on day 3; for Survival (days) 10 mg/kg SSV po: single 10 mg/kg po in SSV; for Activity (%) 10 mg/kg SSV po: single 10 mg/kg po in standard suspending vehicle (SSV) on day 1 post-infection; for Survival (days) 10 mg/kg sc: single 10 mg/kg sc in 3% ethanol and 7% Tween 80; for Activity (%) 10 mg/kg sc: single 10 mg/kg sc in 3% ethanol and 7% Tween 80 on day 1 post-infection
[5] = system: chloroquine-resistant K1 strain of P. falciparum; assay: In vitro antimalarial semiautomated microdilution assay ([3H]-hypoxanthine incorporation), K1 strain; format: cell-based, Plasmodium falciparum; details: for IC50: Plasmodium falciparum
Summary of the method: (§1)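 Semiautomated microdilution against intraerythrocytic P. falciparum from asynchronous stock cultures, with growth tracked by [3H]-hypoxanthine incorporation. IC50 values were estimated by Logit regression analysis.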

[6] = system: chloroquine-sensitive NF54 strain of P. falciparum; assay: In vitro antimalarial semiautomated microdilution assay ([3H]-hypoxanthine incorporation), NF54 strain; format: cell-based, Plasmodium falciparum; details: for IC50: Plasmodium falciparum
Summary of the method: as §1

[7] = 49-day-old adults, total worm reduction rate
[8] = percentage of dead worm in the liver
[9] = single dose po in SSV on day 1 post-infection, parasitemia day 3, nonlinear fitting
[10] = single 200 mg/kg per os, 21-day-old schistosomules
[11] = Plasmodium berghei, single dose po in SSV on day 1 post-infection, parasitemia day 3, nonlinear fitting, read-out: ED50
[12] = Plasmodium berghei, po, single dose po in SSV on day 1 post-infection, parasitemia day 3, nonlinear fitting
[13] = K1, 72 h, read-out: IC50 (ng/ml) K1, chloroquine-resistant K1 strain, 72 h incubation
[14] = NF54, 72 h, read-out: IC50 (ng/ml) NF54, chloroquine-sensitive NF54 strain, 72 h incubation

O=C1CCC2(CC1)OOC1(O2)C2CC3CC(C2)CC1C3 (centres unmarked) [OZ05]
% reduction of adult worms growth at day 49 after per os application of 200 mg/kg, TWR (%) ([1]; single 200 mg/kg per os, 49-day-old adults, total worm reduction rate): 46%
Adult worms day 49, per os 200 mg/kg, DEAD WORM (%) ([1]; single 200 mg/kg per os, percentage of dead worm in the liver): 12%
% reduction of adult worms growth at day 49 after per os application of 400 mg/kg, TWR (%) [1, 7]: 23%
Adult worms day 49, per os 400 mg/kg, DEAD WORM (%) [1, 8]: 32%
% reduction of adult worms growth at day 49 after per os application of 600 mg/kg, TWR (%) ([1]; single 600 mg/kg per os, 49-day-old adults, total worm reduction rate): 70%
Adult worms day 49, per os 600 mg/kg, DEAD WORM (%) ([1]; single 600 mg/kg per os, percentage of dead worm in the liver): 58%
ED90 ([2]; po): 12 mg/kg
ED99 [2, 9]: 15 mg/kg
% reduction of schistosomule growth at day 21 after per os application of 200 mg/kg, TWR (%) ([3]; po, 200 mg/kg, 504 h): 90%
% reduction of schistosomule growth at day 21 after per os application of 200 mg/kg, FWR (%) [3, 10]: 88%

c1ccc(C2CCC3(CC2)OOC2(O3)C3CC4CC(C3)CC2C4)cc1 (centres unmarked) [OZ27]
% reduction of adult worms growth at day 49 after per os application of 400 mg/kg, TWR (%) [1, 7]: 20%
Adult worms day 49, per os 400 mg/kg, DEAD WORM (%) [1, 8]: 10%
ED50 [2, 11]: 2.9 mg/kg
ED90 [2, 9]: 5.7 mg/kg
ED99 [2, 9]: 9.9 mg/kg
% reduction of schistosomule growth at day 21 after per os application of 200 mg/kg, TWR (%) ([3]; po, 200 mg/kg, 504 h): 63%
% reduction of schistosomule growth at day 21 after per os application of 200 mg/kg, FWR (%) [3, 10]: 58%

O=C(NO)[C@H]1CC[C@@]2(CC1)OOC1(O2)C2CC3CC(C2)CC1C3 (some centres unmarked) [OZ127]
Survival (days) 10 mg/kg po [4]: 7.0 days
Activity (%) 10 mg/kg po [4]: 95%
Survival (days) 10 mg/kg SSV po [4]: 7.7 days
Activity (%) 10 mg/kg SSV po [4]: 98%
Survival (days) 10 mg/kg sc [4]: 7.7 days
Activity (%) 10 mg/kg sc [4]: 97%
ED50 [2, 12]: 2.5 mg/kg
ED90 [2, 9]: 7.6 mg/kg
ED99 [2, 9]: 19 mg/kg
IC50 [5, 13]: 0.61 ng/mL (≈ 1.89 nM)
IC50 [6, 14]: 1.3 ng/mL (≈ 4.02 nM)

c1ncn(C[C@H]2CC[C@]3(CC2)OOC2(O3)C3CC4CC(C3)CC2C4)n1 (stereo partly drawn) [OZ177, cis-Adamantane-2-spiro-3′-8′-(1′H-1′,2′,4′-triazol-1′-ylmethyl)-1′,2′,4-trioxaspiro[4.5]decane]
Survival (days) 10 mg/kg po ([4]; 10 mg/kg): 12.3 days
Activity (%) 10 mg/kg po ([4]; 10 mg/kg): 99.91%
Survival (days) 10 mg/kg SSV po ([4]; 10 mg/kg): 12.7 days
Activity (%) 10 mg/kg SSV po ([4]; 10 mg/kg): 99.88%
Survival (days) 10 mg/kg sc ([4]; 10 mg/kg): 17.7 days
Activity (%) 10 mg/kg sc ([4]; 10 mg/kg): 99.91%
ED50 [2, 12]: 2.1 mg/kg
ED90 [2, 9]: 3.7 mg/kg
ED99 [2, 9]: 5.8 mg/kg
IC50 (ng/ml) K1 ([5]; chloroquine-resistant K1 strain, 72 h incubation): 0.9 ng/mL (≈ 2.61 nM)
IC50 (ng/ml) NF54 ([6]; chloroquine-sensitive NF54 strain, 72 h incubation): 1.7 ng/mL (≈ 4.92 nM)

c1cn(C[C@H]2CC[C@]3(CC2)OOC2(O3)C3CC4CC(C3)CC2C4)cn1 (some centres unmarked) [OZ179]
Survival (days) 10 mg/kg po ([4]; hydrochloride, 10 mg/kg): 11.3 days
Activity (%) 10 mg/kg po ([4]; hydrochloride, 10 mg/kg): 99.91%
Survival (days) 10 mg/kg SSV po ([4]; hydrochloride, 10 mg/kg): 10.3 days
Activity (%) 10 mg/kg SSV po ([4]; hydrochloride, 10 mg/kg): 99.78%
Survival (days) 10 mg/kg sc ([4]; hydrochloride, 10 mg/kg): 11.3 days
Activity (%) 10 mg/kg sc ([4]; hydrochloride, 10 mg/kg): 99.91%
ED50 [2, 12]: 1.4 mg/kg
ED90 [2, 9]: 3.3 mg/kg
ED99 [2, 9]: 6.6 mg/kg
IC50 [5, 13]: 1.3 ng/mL (≈ 3.77 nM)
IC50 [6, 14]: 1.1 ng/mL (≈ 3.19 nM)

CC(C)(O)C[C@H]1CC[C@]2(CC1)OOC1(O2)C2CC3CC(C2)CC1C3 (some centres unmarked) [OZ205]
Survival (days) 10 mg/kg po [4]: 10.0 days
Activity (%) 10 mg/kg po [4]: 99.96%
Survival (days) 10 mg/kg SSV po [4]: 8.7 days
Activity (%) 10 mg/kg SSV po [4]: 99.94%
Survival (days) 10 mg/kg sc [4]: 9.7 days
Activity (%) 10 mg/kg sc [4]: 99.96%
% reduction of adult worms growth at day 49 after per os application of 400 mg/kg, TWR (%) [1, 7]: 0%
Adult worms day 49, per os 400 mg/kg, DEAD WORM (%) [1, 8]: 12%
ED50 [2, 12]: 1.6 mg/kg
ED90 [2, 9]: 3.3 mg/kg
ED99 [2, 9]: 6.0 mg/kg
IC50 [5, 13]: 1.5 ng/mL (≈ 4.46 nM)
% reduction of schistosomule growth at day 21 after per os application of 200 mg/kg, FWR (%) [3, 10]: 83%
% reduction of schistosomule growth at day 21 after per os application of 200 mg/kg, TWR (%) ([3]; single 200 mg/kg per os, 21-day-old schistosomules, total worm reduction rate): 84%
IC50 [6, 14]: 2 ng/mL (≈ 5.94 nM)

c1cn(CC[C@H]2CC[C@]3(CC2)OOC2(O3)C3CC4CC(C3)CC2C4)cn1 (some centres unmarked) [OZ219]
Survival (days) 10 mg/kg po [4]: 8.7 days
Activity (%) 10 mg/kg po [4]: 99.89%
Survival (days) 10 mg/kg SSV po [4]: 8.0 days
Activity (%) 10 mg/kg SSV po [4]: 99.82%
Survival (days) 10 mg/kg sc [4]: 9.3 days
Activity (%) 10 mg/kg sc [4]: 99.91%
ED50 [2, 11]: 1.6 mg/kg
ED90 ([2]; po): 3.0 mg/kg
ED99 [2, 9]: 5.2 mg/kg
IC50 ([5]; chloroquine-resistant K1 strain, 72 h incubation, read-out: IC50 (ng/ml) K1): 0.85 ng/mL (≈ 2.37 nM)
IC50 ([6]; chloroquine-sensitive NF54 strain, 72 h incubation, read-out: IC50 (ng/ml) NF54): 1.6 ng/mL (≈ 4.46 nM)

CN1CCN(C(=O)C[C@H]2CC[C@]3(CC2)OOC2(O3)C3CC4CC(C3)CC2C4)CC1 (some centres unmarked) [OZ227]
Survival (days) 10 mg/kg po [4]: 8.3 days
Activity (%) 10 mg/kg po [4]: 99.68%
Survival (days) 10 mg/kg SSV po [4]: 9.3 days
Activity (%) 10 mg/kg SSV po [4]: 99.90%
Survival (days) 10 mg/kg sc [4]: 10.7 days
Activity (%) 10 mg/kg sc [4]: 99.84%
ED50 [2, 12]: 2.3 mg/kg
ED90 [2, 9]: 4.0 mg/kg
ED99 [2, 9]: 6.2 mg/kg
IC50 [5, 13]: 0.2 ng/mL (≈ 0.494 nM)
IC50 [6, 14]: 0.2 ng/mL (≈ 0.494 nM)

c1ncn(C[C@H]2CC[C@]3(CC2)OOC2(O3)C3CC4CC(C3)CC2C4)n1 (stereo partly drawn) [OZ235, cis-Adamantane-2-spiro-3′-8′-(1′H-1′,2′,4′-triazol-1′-ylmethyl)-1′,2′,4-trioxaspiro[4.5]decane mesylate]
Survival (days) 10 mg/kg po ([4]; 10 mg/kg): 8.7 days
Activity (%) 10 mg/kg po ([4]; 10 mg/kg): 99.92%
Survival (days) 10 mg/kg SSV po ([4]; 10 mg/kg): 9.0 days
Activity (%) 10 mg/kg SSV po ([4]; 10 mg/kg): 99.97%
Survival (days) 10 mg/kg sc ([4]; 10 mg/kg): 8.0 days
Activity (%) 10 mg/kg sc ([4]; 10 mg/kg): 97%
ED50 [2, 9]: 4.0 mg/kg
ED90 [2, 9]: 7.1 mg/kg
ED99 [2, 9]: 11 mg/kg
IC50 [5, 13]: 1 ng/mL
IC50 [6, 14]: 2 ng/mL
